We go through five molecules from patent US9988407B2, “Prodrugs of prostate specific membrane antigen (PSMA) inhibitor” (THE JOHNS HOPKINS UNIVERSITY, priority 2014, dated 2018).

A short description of data set [1]: In vitro metabolic stability screen in plasma and liver subcellular fractions (results in words). In kind it is in vitro ADME. As to conditions: 60 min incubation. Here is the method: (§1) For metabolic stability, plasma (mouse, dog, monkey and human) and liver microsomes (mouse, dog, monkey and human) were used. For stability, prodrugs (10 μM) were spiked in each matrix and incubated in an orbital shaker at 37° C. At predetermined times (0, 30 and 60 min), 100 μL aliquots of the mixture in triplicate were removed and the reaction quenched by addition of three times the volume of ice cold acetonitrile spiked with the internal standard (losartan 5 μM). The samples were vortexed for 30 s and centrifuged 12000 g for 10 min. 50 μL supernatant diluted with 50 μL water was transferred to a 250 μL polypropylene vial sealed with a Teflon cap. Prodrug disappearance was monitored over time using a liquid chromatography and tandem mass spectrometry (LC/MS/MS) method as described below.
(§2) For LC/MS/MS, prodrugs were separated with Thermo Scientific Accela UPLC system coupled to Accela open autosampler on an Agilent C18 (100×2.1 mm id) UPLC column. The autosampler was temperature controlled and operating at 10° C. The mobile phase used for the chromatographic separation was composed of acetonitrile/water containing 0.1% formic acid and was run at a flow rate of 0.5 mL/minute for 4.5 minutes using gradient elution. The column effluent was monitored using TSQ Vantage triple-quadrupole mass spectrometric detector, equipped with an electrospray probe set in the positive ionization mode. Samples were introduced into the ionization source through a heated nebulized probe (350° C.).
For quantification of compound remaining, disappearance of prodrugs was measured from ratio of peak areas of analyte to IS. Percentage remaining was calculated in the following manner:
In general, the prodrugs were screened by an in vitro metabolic stability screen, and if positive, followed by an in vivo single time point pharmacokinetic study, and in select cases, an in vivo full time course pharmacokinetic study (FIG. 3). In this Example, the four acidic functional groups in 2-PMPA were systematically capped. The carboxylic acids were first masked with simple alkyl esters (Compounds 1, 2, and 3). In vitro chemical and metabolic stability of the prodrugs then were conducted, following 60 min incubation in plasma stability screens for prodrugs.

Data set [2] in a line: Metabolic stability in mouse plasma. Type of data set: in vitro ADME. As to conditions: 10 μM, 37° C. Here is the method:
as §1, §2
(§3) For quantification of compound remaining, disappearance of prodrugs was measured from ratio of peak areas of analyte to IS. Percentage remaining was calculated in the following manner: […]

Data set [3] is described as follows: Metabolic stability in mouse liver S9. In kind it is in vitro ADME. As to conditions: Mouse S9, 10 μM, 37° C.
Data set [4] can be described thus: Metabolic stability in mouse liver microsomes. In kind it is in vitro ADME. As to conditions: 10 μM, 37° C. Here is the method: as §1, §2, §3
In general terms: Liver microsomes are vesicles of endoplasmic reticulum, rich in cytochrome P450 enzymes.

Data set [5] can be described thus: In vivo pharmacokinetics in mice, peroral, bioanalysis method 1 (total prodrug exposure). The following applies: mice, oral dosing. As to the method: Blood was obtained via cardiac puncture and tissue dissected at 0 min, 15 min, 30 min, 1 h, 2 h, and 4 h post dose (n=3 per time point). Single time point studies were conducted at 30 min (N=3) following dosing. Plasma was harvested from blood by centrifugation. Mean concentration-time data was used for pharmacokinetic (PK) analysis. Non-compartmental-analysis module in WinNonlin® (version 5.3) was used to assess pharmacokinetic parameters. Peak plasma concentrations (Cmax) and time to Cmax (Tmax) were the observed values. Area under the curve (AUC) was calculated by log-linear (p.o.) trapezoidal rule to the end of sample collection (AUClast) and extrapolated to infinity (AUC0-∞) by dividing the last quantifiable concentration by the terminal disposition rate constant (ke). Terminal half-life (t1/2) was estimated from first order kinetics: t1/2=0.693/ke.
Briefly, prior to extraction, frozen samples were thawed on ice. For plasma extraction, 50 μL of the calibration standards or samples were transferred into silanized microcentrifuge tubes. Sample preparation involved a single liquid extraction by addition of 300 μL of methanol as extraction solution with internal standard (i.e., 5 μM of 2-PMSA in methanol), followed by vortexing for 30 s and then centrifugation at 12000 g for 10 min. Supernatant was transferred (˜250 μL) and evaporated to dryness at 40° C. under a gentle stream of nitrogen. The residue was reconstituted with 100 μL of derivatizing agent, n-butanol with 3N HCl, and samples were vortexed. The samples were heated at ˜60 OC in a shaking water bath for 30 min. At the end of 30 min, the derivatized samples were allowed to cool at room temperature and dried again for removal of derivatizing reagent, under a gentle stream of nitrogen. The residue was reconstituted in 100 μL of 30% acetonitrile in water v/v. The samples were vortexed and centrifuged again. ˜80 μL supernatant was transferred to a 250 μL polypropylene vial sealed with a Teflon cap and a volume of 10 μL was injected onto the ultra-performance liquid chromatography (UPLC) instrument for quantitative analysis. Chromatographic analysis was performed using an Accela™ ultra high-performance system consisting of an analytical pump, and an autosampler coupled with TSQ Vantage mass spectrometer (Thermo Fisher Scientific Inc., Waltham Mass.). […] The mobile phase used was composed of 0.1% formic acid in acetonitrile and 0.1% formic acid in H2O with gradient elution, starting with 20% (organic) linearly increasing to 65% up to 2.5 min, maintaining at 65% (2.5-3.5 min) and reequilibrating to 30% by 5 min. The total run time for each analyte was 5.0 min.

Data set [6] is described as follows: Chemical stability in HBSS buffer (pH 7.4) / simulated gastric fluid. Type of data set: physicochemical. As to conditions: for Percentage remaining: HBSS, 10 μM, 37° C.; for chemical stability: chemical hydrolysis / HBSS buffer. As to the method: The chemical stability of prodrugs was evaluated using simulated gastric fluid (pH 1.2) and Hanks' Balanced Salt Solution (HBSS) buffer (pH 7.4). Briefly, prodrugs were spiked (10 μM) in respective solutions and incubated at 37° C. for 1 h. At predetermined time points (0, 30 and 60 min), aliquots of 100 μL were removed and diluted with 100 μL of water. Prodrug disappearance was monitored using the developed liquid chromatography and tandem mass spectrometry (LC/MS/MS) method described below.
as §2, §3

Data set [7] is described as follows: Metabolic stability in human liver microsomes. Type of data set: in vitro ADME. As to conditions: 10 μM, 37° C. Here is the method:
as §1, §2, §3

Data set [8] is described as follows: Metabolic stability in human plasma. Type of data set: in vitro ADME. The following applies: 10 μM, 37° C. Here is the method:
as §1, §2, §3

Entries after “also recorded” stand apart in the source; their conditions may differ.

As for `COC(=O)CCC(CP(=O)(OCOC(=O)OC(C)C)OCOC(=O)OC(C)C)C(=O)OC` (stereo not shown) [Compound 6, Dimethyl 2-((bis{[(isopropoxycarbonyl)oxy]methoxy}phosphoryl)methyl)-pentanedioate], the “in vitro metabolic stability” value in data set [1] is “unstable in mouse plasma and mouse liver microsomes”. Also, the Percentage remaining in data set [2] (0 min) is given as 100%; in data set [2] (30 min), 2%; in data set [2] (60 min), 0.4%; in data set [3] (0 min), 100%; in data set [3] (30 min) it was 1%; in data set [3] (60 min) it was 0.1%. The Percentage remaining was 100% in data set [4] (0 min); 2% in data set [4] (30 min); 0.1% in data set [4] (60 min); 100% in data set [6] (0 min); 101% in data set [6] (30 min); 93% in data set [6] (60 min). Besides, the “permeability in vivo” value in data set [5] is listed as “good compound penetrability; also recorded: good permeability”; in data set [5] (listed as JHU 2110) it was “most permeable”. Further, the “chemical stability” value was “stable to chemical hydrolysis” in data set [6] and “stable in HBSS buffer” in data set [6] (listed as JHU 2110).
`COC(=O)C(CCC(=O)O)CP(=O)(OCOC(=O)OC(C)C)OCOC(=O)OC(C)C` (stereo not shown) [Compound 7, 4-((Bis{[(isopropoxycarbonyl)oxy]methoxy}phosphoryl)methyl)-5-methoxy-5-oxopentanoic acid]: in data set [1], the “in vitro metabolic stability” value was “unstable in mouse plasma and mouse liver microsomes”. Also, the “permeability in vivo” value in data set [5] was “good compound penetrability; also recorded: good permeability”. Besides, in data set [6], the “chemical stability” value is “stable to chemical hydrolysis”.
Consider `CCOCCOCCOCCOCCOCCOCCOP(=O)(CC(CCC(=O)OC)C(=O)OC)OCCOCCOCCOCCOCCOCCOCC` (stereo not shown) [Compound 13, Dimethyl 2-((bis((3,6,9,12,15,18-hexaoxaicosyl)oxy)phosphoryl)methyl)pentanedioate], for which the “in vitro metabolic stability” value in data set [1] is “too stable in some of the samples”. For the same molecule, the Percentage remaining in data set [2] (0 min) came out at 100%; in data set [2] (30 min), 2%; in data set [2] (60 min), 1%; in data set [3] (0 min), 100%; in data set [3] (30 min), 106%; in data set [3] (60 min), 100%. For the same molecule, the Percentage remaining is recorded as 100% in data set [4] (0 min); 99% in data set [4] (30 min); 100% in data set [4] (60 min); 100% in data set [6] (0 min); 99% in data set [6] (30 min); 101% in data set [6] (60 min).
With `CCOC(=O)CCC(CP(=O)(OCOC(=O)C(C)(C)C)OCOC(=O)C(C)(C)C)C(=O)OCC` (stereo not shown) [Compound 18, Diethyl 2-({bis[(pivaloyloxy)methoxy]phosphoryl}methyl)pentanedioate], in data set [1], the “in vitro metabolic stability” value is “too stable”. Moreover, the Percentage remaining in data set [2] (0 min) is recorded as 0%; in data set [2] (30 min), 0%; in data set [2] (60 min), 0%; in data set [3] (0 min), 100%; in data set [3] (30 min), 1%; in data set [3] (60 min) it was 0%. In addition, the Percentage remaining in data set [7] (0 min) turned out to be 100%; in data set [7] (30 min), 1%; in data set [7] (60 min) it was 0%; in data set [4] (0 min), 100%; in data set [4] (30 min) it was 2%; in data set [4] (60 min) it was 0%. The Percentage remaining was found to be 100% in data set [8] (0 min), 50% in data set [8] (30 min) and 18% in data set [8] (60 min).
As to `CC(C)(C)C(=O)OCOC(=O)C(CCC(=O)O)CP(=O)(OCOC(=O)C(C)(C)C)OCOC(=O)C(C)(C)C` (stereo not shown) [Compound 23], in data set [1], the “in vitro metabolic stability” value was “instability in plasma and liver subcellular fractions”. Moreover, the “permeability in vivo” value in data set [5] is “highest permeability”. Moreover, the “chemical stability” value in data set [6] is given as “sufficient chemical stability”.
